Test results taken from patent publication US20190125772A1, “IMPROVED DRUG COMBINATIONS FOR DRUG-RESISTANT AND DRUG-SENSITIVE MULTIPLE MYELOMA” (priority 2015, published 2019).

Assays:
[1] = test system: RPMI 8226 (Bortezomib-sensitive) versus THLE-2 healthy control cells; test: FSC in vitro cellular assay, output = cell viability of THLE-2 minus cell viability of RPMI 8226, with linear regression and response surface maps; type: cell-based; details: for drug candidate assessment from two-drug interaction terms: first iteration, interaction coefficients with desirable candidates
Excerpt: This is expressed as a therapeutic window (% Output) that is the difference in percentage (%) viability between treated multiple myeloma and THLE-2 cells.

[2] = test system: Bortezomib-sensitive RPMI 8226 multiple myeloma cells; test: Inhibitory concentrations (ICx, inhibition of cell growth) of the drugs in FSC-derived optimal combinations, Bortezomib-sensitive multiple myeloma; type: cell-based; details: concentration of the single drug as used in optimal combinations
Excerpt: FIG. 8: Table showing the design of three iterations. IC20 represents 20% inhibitory concentration, which is the dosage of drug for 20% inhibition of cell growth. The first and second iterations are drug screening experiments to remove unfavorable drug candidates.
FIG. 14: Multi-drug optimization experimental assessment of prescribed combinations and output. […] The calculated y from the equation (FIG. 13) is the output as shown here.
In each iteration (experiment run), a list of drug combinations used is based on an experimental design methodology that aims to reduce the number of experiments to obtain sufficient information to build a mathematical equation.
After the list of drug combinations is determined, the drug combinations are applied to an in vitro cellular assay. A healthy control cell (THLE-2) is used to determine liver toxicity caused by drug treatment. Drug efficacy is determined using the B lymphocyte cancer cell (RPMI 8226). Favorable drug combinations would maximize cancer cell killing while minimizing health cell death. […] The experiments are conducted in a rapid, high-throughput manner using an automated liquid handler machine.

## CC(C)C[C@H](NC(=O)[C@H](CCc1ccccc1)NC(=O)CN1CCOCC1)C(=O)N[C@@H](Cc1ccccc1)C(=O)N[C@@H](CC(C)C)C(=O)[C@@]1(C)CO1 [Carfilzomib, (2S)-N-((S)-1-((S)-4-methyl-1-((R)-2-methyloxiran-2-yl)-1-oxopentan-2-ylcarbamoyl)-2-phenylethyl)-2-((S)-2-(2-morpholinoacetamido)-4-phenylbutanamido)-4-methylpentanamide]
[1]; third iteration, other four drugs kept at 100%
  effect of presence or absence of the drug on the output: does not change the output

## O.O=P1(N(CCCl)CCCl)NCCCO1 (stereo not shown) [Cyclophoshamide monohydrate]
[1]; first attempt
  drug candidate assessment from two-drug interaction terms: can be eliminated
[1]; second attempt
  drug candidate assessment from two-drug interaction terms: can be eliminated

## Nc1ncn([C@H]2C[C@H](O)[C@@H](CO)O2)c(=O)n1 [Decitabine, 5-aza-2′-deoxycytidine]
[1]; first attempt
  drug candidate assessment from two-drug interaction terms: can be eliminated

## CO[C@@]12[C@H](COC(N)=O)C3=C(C(=O)C(C)=C(N)C3=O)N1C[C@@H]1N[C@@H]12 [Mitomycin C]
[1]; second attempt
  drug candidate assessment from two-drug interaction terms: can be eliminated

## Cc1[nH]c2ccccc2c1CCNCc1ccc(/C=C/C(=O)NO)cc1 [Panobinostat, (2E)-N-hydroxy-3-[4-({[2-(2-methyl-1H-indol-3-yl)ethyl]amino}methyl)phenyl]acrylamide]
[2]
  IC8.75: ~0.0003239 µM
  IC17.5: ~0.0005905 µM
  IC26.25: ~0.0008734 µM
  IC35: ~1.195 nM
[2]; listed as Panobinostal
  IC8.75: IC8.75/[3.239E−4 μM]
  IC17.5: IC17.5/[5.905E−4 μM]
  IC26.25: IC26.25/[8.734E−4 μM]
  IC35: IC35/[1.195E−3 μM]
